We go through two molecules from PMC7046148 (Scientific Reports, 2020).

SMILES strings stand for the structures. “Also recorded” adds a separate entry of the source. Where only a bound is given, the exact number is not on record here.

By IC50 is commonly meant the point on the concentration scale where inhibition reaches its midpoint.

Data set [1] concerns XCL-1 hiPSC SALL4^G416A. Put plainly: LPM differentiation assay (FOXF1 high content imaging), XCL-1 SALL4^G416A clone. As to conditions: Homo sapiens, 48 h, read-out: IC50 (±SEM) in LPM differentiation assay.
Experimental: (§2) hiPSCs (Gibco or XCL-1 clones) were grown in mTeSR-1 on Matrigel, passaged into small clumps with Versene (4.5 min under normal culture conditions), counted as a single-cell suspension as described above, and seeded as small clumps at approximately 10,000 cells/well (30,000 cells/cm^2, ~15% confluence) in 100 µL mTeSR1 on Matrigel-coated µClear® 96-well plates (Greiner) for 1 d under normal culture conditions. On the day after seeding, the medium was replaced with 100 µL/well of mTeSR-1 (control) or APEL2 + GSKi containing either DMSO or diluted compounds (for a final DMSO concentration of 0.2%). The same conditions were replenished the following day for a total of 2 d of differentiation, and the following day (3 d after seeding), the medium was aspirated, and hiPSCs were fixed in 10% NBF for 15 min at room temperature.
(§3) Immunofluorescence staining was carried out by fixing/permeabilizing cells overnight in blocking buffer containing 3% BSA (Sigma) in DPBS-T, which contains DPBS + Ca^2+//Mg^2+ with 0.3% Triton-X100 (Sigma). Fixed and permeabilized cells were incubated in primary antibodies diluted (as noted in Table 1) in antibody buffer, consisting of 1% BSA in DPBS-T, overnight at 4 °C.
(§4) Cells were washed in blocking buffer for >6 hours at 4 °C and subsequently incubated in secondary antibody diluted in antibody buffer overnight at 4 °C. Secondary antibodies were washed out in antibody buffer for >4 h at 4 °C, and hiPSCs were counterstained with DAPI (Fisher) at 10 µg/mL in DPBS-T for 2 h. hiPSCs were washed in DPBS-T for >2 h at 4 °C, and immediately before imaging, the DPBS-T was replaced with DPBS. […] Chemical dose-response experiments and experiments examining the time-course of marker expression during LPM differentiation were imaged at 10X magnification using the Cellomics ArrayScan or CellInsight Cx7 LZR High Content Screening Platform and HCS Studio Cell Analysis Software (Thermo Fisher). An artificial threshold was uniformly applied to all images to generate the percentage of DAPI+ nuclei that stained positively for FOXF1 or NANOG. Thresholding for FOXF1 and T was performed relative to undiffer-entiated hiPSCs, and thresholding for SALL4 and OCT4 was performed relative to a non-expressing cell type (human primary endothelial cells). Settings for image acquisition and processing were uniformly applied between XCL-1 clones. […] Experiments were repeated in quadruplicate unless otherwise stated, and data are presented as mean ± SEM. Nonlinear regression analysis was performed using the 4-parameter [inhibitor]-vs-response curve fitting algorithm in Prism (GraphPad).
In addition, XCL-1 hiPSCs were engineered with CRISPR/Cas9 to express a homozygous SALL4 G416A mutation (hereafter referred to as the SALL4^G416A clone), and the homozygous SALL4 G416A mutation was confirmed by next-generation sequencing (Supplementary Fig. 2).
The target of data set [2] is T1, SALL4 (Homo sapiens, UniProt Q96SW2+Q9UJQ4).
T1 construct: Unmodified Gibco hiPSCs were either differentiated in APEL2 + GSKi or maintained in mTeSR1, and SALL4 nuclear protein expression was monitored; endogenous in cells; host or cells: Gibco hiPSCs; XCL-1 SALL4 mock hiPSC clone
Put plainly: SALL4 nuclear protein expression (MFI) by high content imaging, Gibco hiPSCs. It counts as cell-based. An excerpt: (§1) High content imaging analysis of SALL4 immunofluorescence with DAPI counterstaining in hiPSCs. […] Data represent the mean +/− SEM from 2 independent experiments.

For data set [3], the system named is XCL-1 hiPSC CRBN KO/KI. In words: LPM differentiation assay (FOXF1 high content imaging), XCL-1 CRBN KO/KI clone. The data set is classed as cell-based, human. To be noted: for IC50: Homo sapiens, 48 h, XCL-1 CRBN KO/KI, % FOXF1+ cells after 2 d in APEL2+GSKi, read-out: IC50 (±SEM) in LPM differentiation assay.
Experimental: On the day after seeding, the medium was replaced with 100 µL/well of mTeSR-1 (control) or APEL2 + GSKi containing either DMSO or diluted compounds (for a final DMSO concentration of 0.2%). The same conditions were replenished the following day for a total of 2 d of differentiation, and the following day (3 d after seeding), the medium was aspirated, and hiPSCs were fixed in 10% NBF for 15 min at room temperature. For time-course experiments, cells were fixed at the specified intervals after the start of LPM differentiation.
as §3
Cells were washed in blocking buffer for >6 hours at 4 °C and subsequently incubated in secondary antibody diluted in antibody buffer overnight at 4 °C. Secondary antibodies were washed out in antibody buffer for >4 h at 4 °C, and hiPSCs were counterstained with DAPI (Fisher) at 10 µg/mL in DPBS-T for 2 h. hiPSCs were washed in DPBS-T for >2 h at 4 °C, and immediately before imaging, the DPBS-T was replaced with DPBS. Initial characterization of LPM differentiation by immunofluorescence was carried out using the A1R confocal microscope (Nikon) equipped with 10X objective, and automated object analysis was carried out using NIS Elements v5 software (Nikon). Chemical dose-response experiments and experiments examining the time-course of marker expression during LPM differentiation were imaged at 10X magnification using the Cellomics ArrayScan or CellInsight Cx7 LZR High Content Screening Platform and HCS Studio Cell Analysis Software (Thermo Fisher). An artificial threshold was uniformly applied to all images to generate the percentage of DAPI+ nuclei that stained positively for FOXF1 or NANOG. Thresholding for FOXF1 and T was performed relative to undiffer-entiated hiPSCs, and thresholding for SALL4 and OCT4 was performed relative to a non-expressing cell type (human primary endothelial cells). Settings for image acquisition and processing were uniformly applied between XCL-1 clones. The capacity of all XCL-1 clones and Gibco hiPSCs to undergo LPM differentiation in the high content format was assessed by FOXF1 and NANOG immunostaining. […] Experiments were repeated in quadruplicate unless otherwise stated, and data are presented as mean ± SEM. Nonlinear regression analysis was performed using the 4-parameter [inhibitor]-vs-response curve fitting algorithm in Prism (GraphPad).
Using CRISPR/Cas9-mediated gene editing, both CRBN alleles were knocked out in XCL-1 hiPSCs cells, followed by the insertion at the AAVS1 locus of a transgene encoding human CRBN with E377V and V388I mutations (clone hereafter referred to as CRBN KO/KI).
In data set [4] the test system is XCL-1 hiPSC SALL4 Mock. Put plainly: LPM differentiation assay (FOXF1 high content imaging), XCL-1 SALL4 Mock clone. To be noted: Homo sapiens, 48 h, read-out: IC50 (±SEM) in LPM differentiation assay.
Experimental: as §2, §3, §4
For data set [5], the system named is Gibco hiPSCs. Put plainly: qRT-PCR of 3D fibrin cultures of hiPSCs during LPM differentiation. It counts as cell-based, human. As to conditions: thalidomide 20 µM, atRA 3 µM, 2 d in APEL2+GSKi, fibrin 3D. The procedure: For 3D differentiation studies, Gibco hiPSCs were encapsulated in fibrin at 2–4 × 10^6 cells/mL. hiPSCs were passaged with Versene (as described above) and were suspended as small clumps in a solution composed of a 1:4:5:10 dilution of 200 mM CaCl2 in DI water, 50 U/mL human thrombin (Sigma) in 0.1% cell culture BSA in DI water, DPBS, and hiPSC suspension in mTeSR1. The hiPSC suspension was mixed by pipetting, and 0.5 µL droplets of suspended hiPSCs were plated at the bottom of each well of a round-bottom sterile polypropylene plate. hiPSC suspensions were subsequently diluted 5-fold by pipetting up and down in each well with 2 µL of 10 mg/mL human fibrinogen (Sigma) in DPBS (sterile filtered prior to use). Fibrin clot formation proceeded for 10 minutes at room temperature prior to addition of mTeSR-1 and incubation under normal culture conditions overnight. […] For chondrogenic differentiation experiments, cells were cultured in APEL2 + GSKi for the described duration, followed by culture in ACF MesenCult chondrogenic differentiation medium (Stem Cell Technologies) for 17–20 days under normal culture conditions. […]
(black bars). Data are presented as mean ± SEM of the log2 fold change calculated from each sample relative to the ACTB housekeeper control and the DMSO control (normalized via the 2-ΔΔCT method) from three independent experiments. […]
On the technique in general: In qPCR the cycle at which signal appears reflects the starting amount.

Data set [6] deals with XCL-1 hiPSC CRBN Mock. In words: LPM differentiation assay (FOXF1 high content imaging), XCL-1 CRBN Mock clone. As to conditions: Homo sapiens, 48 h, % FOXF1+ cells after 2 d in APEL2+GSKi, read-out: IC50 (±SEM) in LPM differentiation assay. It counts as cell-based.
Experimental: On the day after seeding, the medium was replaced with 100 µL/well of mTeSR-1 (control) or APEL2 + GSKi containing either DMSO or diluted compounds (for a final DMSO concentration of 0.2%). The same conditions were replenished the following day for a total of 2 d of differentiation, and the following day (3 d after seeding), the medium was aspirated, and hiPSCs were fixed in 10% NBF for 15 min at room temperature.
as §3, §4
Data set [7] has as its system hiPSCs. Put plainly: Viability of hiPSCs in 3D culture (CellTiter Glo 3D). The data set is classed as cell-based, human. As to conditions: 20 µM thalidomide or 3 µM atRA, 2 d LPM differentiation in 3D fibrin. The procedure:
Supplementary Figure 10. Normalized viability of hiPSCs differentiated to LPM for 2 days in 3D […]
µM atRA. Data represent replicate wells in a single experiment, n=6, of hiPSCs that were cultured in fibrin for 1 day in mTeSR1 followed by 2 days of culture in APEL2+GSKi in the presence of either 0.1% […]
differentiation, the medium was replaced with CellTiter Glo 3D reagent (diluted 1:1 in DPBS), and luminescence was measured on a plate reader.
Normalized luminescence is reported as mean +/- SD of 6 replicate wells per condition. No statistical differences was observed via one-way ANOVA and Dunnett’s post-hoc test (α=0.05).
(1 picture or pasted object on this page, not shown here)
A general note: In ATP-based viability assays light output follows the ATP content of the culture.

Data set [8] concerns the target T2, SALL4^G416A (Homo sapiens, UniProt Q9UJQ4, G416A).
T2 construct: parental hiPSCs were engineered to express a homozygous G416A mutation in the endogenous SALL4 locus; endogenous in cells; host or cells: XCL-1 SALL4^G416A hiPSC clone (1E6), CRISPR/Cas9 knock-in at the endogenous locus
In words: SALL4 MFI by high content imaging, XCL-1 SALL4^G416A hiPSCs. As to conditions: SALL4^G416A hiPSC clone, 8 h of treatment. The data set is classed as cell-based.
Source text: as §1

Data set [9] relates to Gibco hiPSCs. Put plainly: LPM differentiation assay (FOXF1 high content imaging), Gibco hiPSCs. As to conditions: for IC50: Homo sapiens, 48 h, read-out: IC50 (±SEM) in LPM differentiation assay.
Experimental: as §2, §3, §4

T1 sequence (Q9UJQ4 whole entry): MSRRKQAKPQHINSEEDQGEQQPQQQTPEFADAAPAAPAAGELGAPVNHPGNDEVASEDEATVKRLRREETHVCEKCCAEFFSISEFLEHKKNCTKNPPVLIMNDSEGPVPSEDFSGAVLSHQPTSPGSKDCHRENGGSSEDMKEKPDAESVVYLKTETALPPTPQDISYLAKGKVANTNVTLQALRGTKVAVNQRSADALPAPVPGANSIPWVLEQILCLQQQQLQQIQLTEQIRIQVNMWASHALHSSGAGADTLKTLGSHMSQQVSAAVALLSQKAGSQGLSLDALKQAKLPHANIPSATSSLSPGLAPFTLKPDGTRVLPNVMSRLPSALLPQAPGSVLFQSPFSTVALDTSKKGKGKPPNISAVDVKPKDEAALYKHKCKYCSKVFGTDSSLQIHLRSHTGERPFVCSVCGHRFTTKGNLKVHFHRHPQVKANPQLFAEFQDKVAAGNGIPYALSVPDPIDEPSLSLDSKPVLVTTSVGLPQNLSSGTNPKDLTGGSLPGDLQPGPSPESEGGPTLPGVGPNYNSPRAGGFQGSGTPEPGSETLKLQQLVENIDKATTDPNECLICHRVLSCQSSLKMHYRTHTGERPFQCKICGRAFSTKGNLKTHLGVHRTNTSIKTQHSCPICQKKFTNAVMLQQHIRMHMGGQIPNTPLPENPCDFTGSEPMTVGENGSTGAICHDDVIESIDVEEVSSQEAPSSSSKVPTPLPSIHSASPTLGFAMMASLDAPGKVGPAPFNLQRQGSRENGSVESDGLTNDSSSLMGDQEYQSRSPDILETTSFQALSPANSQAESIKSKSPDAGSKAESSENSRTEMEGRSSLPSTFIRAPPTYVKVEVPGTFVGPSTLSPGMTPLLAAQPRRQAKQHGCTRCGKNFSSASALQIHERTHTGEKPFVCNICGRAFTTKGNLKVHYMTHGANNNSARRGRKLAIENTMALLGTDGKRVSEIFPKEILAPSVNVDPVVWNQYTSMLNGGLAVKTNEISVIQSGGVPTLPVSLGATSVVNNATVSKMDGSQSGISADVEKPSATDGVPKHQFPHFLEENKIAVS
T1 sequence (Q96SW2 whole entry): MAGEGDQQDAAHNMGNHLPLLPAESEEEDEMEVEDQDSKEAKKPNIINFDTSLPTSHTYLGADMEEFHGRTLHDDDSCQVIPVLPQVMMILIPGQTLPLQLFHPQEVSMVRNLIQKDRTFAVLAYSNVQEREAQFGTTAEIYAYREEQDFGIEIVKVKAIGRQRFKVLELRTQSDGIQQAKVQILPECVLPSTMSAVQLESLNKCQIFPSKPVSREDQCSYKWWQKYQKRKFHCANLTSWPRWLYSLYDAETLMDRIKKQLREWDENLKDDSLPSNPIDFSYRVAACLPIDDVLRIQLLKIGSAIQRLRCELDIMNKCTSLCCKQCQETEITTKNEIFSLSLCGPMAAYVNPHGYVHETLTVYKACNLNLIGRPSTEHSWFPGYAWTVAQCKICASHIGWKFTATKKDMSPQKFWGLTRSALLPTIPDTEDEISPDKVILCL
T1 sequence (Q16531 whole entry partner): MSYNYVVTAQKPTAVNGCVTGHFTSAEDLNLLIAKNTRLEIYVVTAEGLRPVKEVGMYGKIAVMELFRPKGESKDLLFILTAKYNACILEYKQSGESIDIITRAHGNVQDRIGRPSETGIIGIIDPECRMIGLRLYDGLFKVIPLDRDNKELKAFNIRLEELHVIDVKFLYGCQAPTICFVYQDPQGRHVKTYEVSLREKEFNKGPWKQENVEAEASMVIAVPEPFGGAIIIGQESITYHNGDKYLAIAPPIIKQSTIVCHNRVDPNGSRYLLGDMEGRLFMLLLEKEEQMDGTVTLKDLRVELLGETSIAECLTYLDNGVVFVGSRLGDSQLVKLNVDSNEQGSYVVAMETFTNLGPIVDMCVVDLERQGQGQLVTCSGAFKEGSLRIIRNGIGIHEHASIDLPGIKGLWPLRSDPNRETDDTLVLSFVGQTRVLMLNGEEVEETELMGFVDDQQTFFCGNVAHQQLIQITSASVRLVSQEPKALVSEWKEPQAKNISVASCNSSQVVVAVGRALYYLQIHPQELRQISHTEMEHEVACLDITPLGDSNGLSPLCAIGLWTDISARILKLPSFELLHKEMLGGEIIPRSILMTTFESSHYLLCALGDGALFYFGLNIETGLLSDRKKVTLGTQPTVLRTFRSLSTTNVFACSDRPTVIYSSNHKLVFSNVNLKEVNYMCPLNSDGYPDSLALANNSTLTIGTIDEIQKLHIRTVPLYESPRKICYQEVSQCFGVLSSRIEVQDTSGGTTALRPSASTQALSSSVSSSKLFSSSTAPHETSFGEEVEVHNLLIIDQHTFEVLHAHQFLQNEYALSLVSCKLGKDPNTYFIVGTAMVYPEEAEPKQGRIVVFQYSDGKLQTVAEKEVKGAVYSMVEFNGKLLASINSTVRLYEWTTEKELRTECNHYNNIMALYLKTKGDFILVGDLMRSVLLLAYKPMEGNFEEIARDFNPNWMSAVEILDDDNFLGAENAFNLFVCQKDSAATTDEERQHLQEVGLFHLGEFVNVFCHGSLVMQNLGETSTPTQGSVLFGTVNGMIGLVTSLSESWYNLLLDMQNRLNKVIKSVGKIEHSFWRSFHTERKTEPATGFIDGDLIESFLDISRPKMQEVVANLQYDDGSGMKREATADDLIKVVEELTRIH
T2 sequence (Q96SW2 whole entry partner): as the sequence (Q96SW2 whole entry) above
T2 sequence (Q16531 whole entry partner): as the sequence (Q16531 whole entry partner) above
T2 sequence (Q9UJQ4 whole entry G416A): as the sequence (Q9UJQ4 whole entry) above, with G416A counted along it

`O=C1CCC(N2C(=O)c3ccccc3C2=O)C(=O)N1` (centres unmarked) [Thalidomide, thalidomide]: the 50% inhibitory concentration (IC50) in data set [1] was over 50000 nM; in [3] it was over 50000 nM; in [4], 690 ± 500 nM; in data set [6], 560 ± 450 nM; in data set [9], 310 ± 190 nM. Further, the “time-course of SALL4 MFI” value in [2] (20 µM, Gibco hiPSCs in mTeSR1 or APEL2+GSKi, 2, 8 and 24 h after dosing) is given as “rapid decline in SALL4 MFI 2 h after dosing”. In data set [3] (50 µM, CRBN KO/KI clone), the “inhibition of LPM differentiation at the highest concentration tested” value was “inhibited LPM differentiation albeit not to the same magnitude as control hiPSCs”. For the same molecule, in data set [5], the “effect on marker gene expression in 3D LPM differentiation” value was “reduced FOXF1 and KDR expression”. For the same molecule, in data set [7], the “normalized viability (CellTiter Glo 3D) versus DMSO” value is recorded as “No statistical differences”. In data set [8], the “effect on SALL4 MFI” value was “unchanged”. Further, in [9] (thalidomide at 20 µM, atRA at 3 µM, during LPM differentiation), the “reduction of %FOXF1+ cells via high content imaging” value turned out to be 30%.

As to `CC1=C(/C=C/C(C)=C/C=C/C(C)=C/C(=O)O)C(C)(C)CCC1` [atRA, all-trans retinoic acid], the IC50 in data set [1] was 9100 ± 5900 nM; in [3] it was 8170 ± 5100 nM; in [4], 2940 ± 1200 nM; in data set [6], 2700 ± 2000 nM; in data set [9] it was 820 ± 780 nM. Further, the “effect on SALL4 MFI” value in data set [2] (Gibco hiPSCs, 8 h of treatment, dose-response) is on record as “did not reduce SALL4 MFI”; in [8], “unchanged”. Besides, the “effect on marker gene expression in 3D LPM differentiation” value in [5] is “reduced FOXF1 and KDR expression; also recorded: reduced the expression of TBXT and GATA4”. Moreover, the “normalized viability (CellTiter Glo 3D) versus DMSO” value in [7] is reported as “No statistical differences”.
